In the supplement of paper PMC10627819:

Assays:
Test in all cases: Bliss interaction score (quartile over a dose matrix) (fitness difference); higher = more antagonism (negative = synergy)
B. subtilis 168 = system: B. subtilis 168
Summary of the method: (§1)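 The Bliss score subtracts expected fitness, the product of the single-drug fitness values, from observed fitness. Fitness is plate-normalised OD595 at entry into stationary phase, relative to the robust no-drug mean and capped at 1, with single-drug fitness inferred from combinations. Summaries are quartiles over technical, biological and donor/recipient replicates.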

S. aureus DSM 20231 = system: S. aureus DSM 20231
Summary of the method: as §1

S. pneumoniae D39V = system: S. pneumoniae D39V
Summary of the method: as §1

S. aureus Newman = system: S. aureus Newman
Summary of the method: as §1
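Also: first quartile when negative (synergy) and third quartile when positive (antagonism).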

Row | Compound | Bliss interaction score (B. subtilis 168) | Bliss interaction score (S. aureus DSM 20231) | Bliss interaction score (S. pneumoniae D39V) | Bliss interaction score (S. aureus Newman) | Bliss interaction score (B. subtilis 168; main component drawn) | Bliss interaction score (S. aureus DSM 20231; main component drawn) | Bliss interaction score (S. pneumoniae D39V; main component drawn) | Bliss interaction score (S. aureus Newman; main component drawn)
1 | CO[C@@]12[C@H](COC(N)=O)C3=C(C(=O)C(C)=C(N)C3=O)N1C[C@@H]1N[C@@H]12 [MitomycinC] + C/C(=C\C(=O)OCCCCCCCCC(=O)O)C[C@@H]1OC[C@H](C[C@@H]2O[C@H]2[C@@H](C)[C@H](C)O)[C@@H](O)[C@H]1O [Pseudomonic acid] | -0.0185 | -0.011 | -0.0895 | -0.0169 | – | – | – | –
2 | CO[C@@]12[C@H](COC(N)=O)C3=C(C(=O)C(C)=C(N)C3=O)N1C[C@@H]1N[C@@H]12 [MitomycinC] + CC1(C)S[C@@H]2[C@H](NC(=O)Cc3ccccc3)C(=O)N2[C@H]1C(=O)O [PenicillinG] | -0.0602 | -0.0709 | 0.103 | -0.0455 | – | – | – | –
3 | CO[C@@]12[C@H](COC(N)=O)C3=C(C(=O)C(C)=C(N)C3=O)N1C[C@@H]1N[C@@H]12 [MitomycinC] + CC1=C\[C@@H](O)CC(=O)Cc2nc(co2)C(=O)N2CCC=C2C(=O)O[C@H](C(C)C)[C@H](C)/C=C/C(=O)NC\C=C\1 [Virginiamycin M1] | 0.0757 | 0.0401 | 0.0805 | -0.059 | – | – | – | –
4 | CO[C@@]12[C@H](COC(N)=O)C3=C(C(=O)C(C)=C(N)C3=O)N1C[C@@H]1N[C@@H]12 [MitomycinC] + CCC(C)C1C(=O)NC(=C)C(=O)NC(C(=O)NC(CSCC(C(=O)N1)NC(=O)/C(=C/C)/NC(=O)C(C(C)CC)N)C(=O)NC2C(SCC(NC(=O)CNC(=O)C3CCCN3C2=O)C(=O)NC(CCCCN)C(=O)NC4C(SCC(NC(=O)CNC(=O)C(NC(=O)C(NC(=O)C(NC(=O)CNC4=O)C)CC(C)C)CCSC)C(=O)NC(CC(=O)N)C(=O)NC(CCSC)C(=O)NC(CCCCN)C(=O)NC5C(SCC6C(=O)NC(C(=O)NC(CSC(C(C(=O)N6)NC(=O)C(NC5=O)C)C)C(=O)NC(CO)C(=O)NC(C(C)CC)C(=O)NC(CC7=CN=CN7)C(=O)NC(C(C)C)C(=O)NC(=C)C(=O)NC(CCCCN)C(=O)O)CC8=CN=CN8)C)C)C)CC(C)C [Nisin] | – | – | – | – | -0.0279 | -0.242 | -0.0423 | -0.0537
5 | CO[C@@]12[C@H](COC(N)=O)C3=C(C(=O)C(C)=C(N)C3=O)N1C[C@@H]1N[C@@H]12 [MitomycinC] + CCCCCCCCCC(=O)N[C@@H]1[C@H]([C@@H]([C@H](O[C@H]1OC2=C3C=C4C=C2OC5=C(C=C(C=C5)[C@H]([C@H]6C(=O)N[C@@H](C7=C(C(=CC(=C7)O)OC8[C@H]([C@H]([C@@H]([C@H](O8)CO)O)O)O)C9=C(C=CC(=C9)[C@H](C(=O)N6)NC(=O)[C@@H]4NC(=O)[C@@H]1C2=CC(=CC(=C2)OC2=C(C=CC(=C2)[C@H](C(=O)N[C@H](CC2=CC(=C(O3)C=C2)Cl)C(=O)N1)N)O)O)O)C(=O)O)O[C@H]1[C@@H]([C@H]([C@@H]([C@H](O1)CO)O)O)NC(=O)C)Cl)CO)O)O [Teicoplanin] | – | – | – | – | -0.0487 | -0.126 | -0.0795 | -0.228
6 | CO[C@@]12[C@H](COC(N)=O)C3=C(C(=O)C(C)=C(N)C3=O)N1C[C@@H]1N[C@@H]12 [MitomycinC] + CCN(CC)CCOC(=O)c1ccc(N)cc1 [Procaine] | 0.0575 | 0.0322 | 0.0639 | 0.0275 | – | – | – | –
7 | CO[C@@]12[C@H](COC(N)=O)C3=C(C(=O)C(C)=C(N)C3=O)N1C[C@@H]1N[C@@H]12 [MitomycinC] + CC[C@H]1OC(=O)[C@H](C)C(=O)[C@H](C)[C@@H](O[C@@H]2O[C@H](C)C[C@H](N(C)C)[C@H]2O)[C@](C)(OC)C[C@@H](C)C(=O)[C@H](C)[C@H]2N(CCCCn3cnc(-c4cccnc4)c3)C(=O)O[C@]12C [Telithromycin] | 0.0694 | -0.0567 | -0.102 | -0.0269 | – | – | – | –
8 | CO[C@@]12[C@H](COC(N)=O)C3=C(C(=O)C(C)=C(N)C3=O)N1C[C@@H]1N[C@@H]12 [MitomycinC] + CN1C2=CC=CC=C2N=C3C1=CC=CC3=O [Pyocyanin] | 0.0608 | 0.0464 | 0.0705 | -0.0681 | – | – | – | –
9 | CO[C@@]12[C@H](COC(N)=O)C3=C(C(=O)C(C)=C(N)C3=O)N1C[C@@H]1N[C@@H]12 [MitomycinC] + CN(C)c1cc(NC(=O)CNC(C)(C)C)c(O)c2c1C[C@H]1C[C@H]3[C@H](N(C)C)C(O)=C(C(N)=O)C(=O)[C@@]3(O)C(O)=C1C2=O [Tigecycline] | 0.245 | 0.0285 | 0.0464 | -0.0488 | – | – | – | –
10 | CO[C@@]12[C@H](COC(N)=O)C3=C(C(=O)C(C)=C(N)C3=O)N1C[C@@H]1N[C@@H]12 [MitomycinC] + CN(N=O)C(=O)N[C@@H](C=O)[C@@H](O)[C@H](O)[C@H](O)CO [Streptozotocin] | -0.037 | 0.0493 | -0.0613 | 0.0483 | – | – | – | –
11 | CO[C@@]12[C@H](COC(N)=O)C3=C(C(=O)C(C)=C(N)C3=O)N1C[C@@H]1N[C@@H]12 [MitomycinC] + CN[C@@H]1[C@H](O)[C@H](NC)[C@H]2O[C@@]3(O)C(=O)C[C@@H](C)O[C@H]3O[C@@H]2[C@H]1O [Spectinomycin] | 0.0749 | 0.0772 | -0.06 | -0.0974 | – | – | – | –
12 | CO[C@@]12[C@H](COC(N)=O)C3=C(C(=O)C(C)=C(N)C3=O)N1C[C@@H]1N[C@@H]12 [MitomycinC] + CN[C@@H]1[C@H](O[C@H]2[C@H](O[C@H]3[C@H](O)[C@@H](O)[C@H](N=C(N)N)[C@@H](O)[C@@H]3N=C(N)N)O[C@@H](C)[C@]2(O)C=O)O[C@@H](CO)[C@H](O)[C@H]1O [Streptomycin] | -0.21 | -0.117 | -0.072 | -0.078 | – | – | – | –
13 | CO[C@@]12[C@H](COC(N)=O)C3=C(C(=O)C(C)=C(N)C3=O)N1C[C@@H]1N[C@@H]12 [MitomycinC] + CN[C@H](CC(C)C)C(=O)N[C@H]1C(=O)N[C@@H](CC(N)=O)C(=O)N[C@H]2C(=O)N[C@H]3C(=O)N[C@H](C(=O)N[C@H](C(=O)O)c4cc(O)cc(O)c4-c4cc3ccc4O)[C@H](O)c3ccc(c(Cl)c3)Oc3cc2cc(c3O[C@@H]2O[C@H](CO)[C@@H](O)[C@H](O)[C@H]2O[C@H]2C[C@](C)(N)[C@H](O)[C@H](C)O2)Oc2ccc(cc2Cl)[C@H]1O [Vancomycin] | 0.0157 | 0.0497 | 0.124 | -0.0526 | – | – | – | –
